Here are results for one substance from patent US12350288B2, “Inducing caspase activity” (Dow Global Technologies LLC, priority 2019, dated 2025).

Bounds are passed on as bounds.

This series has as its system HT-29 cells (human colon; colorectal adenocarcinoma).

Protocol: HT-29 (ATCC® HTB-38™) cells (which contained approximately 1×10^6 cells per mL) were initiated and seeded into a T-25 flask containing McCoy's 5A and fetal bovine serum (10% (v/v)). […] The cells were grown in a humidified incubator (SANYO INCT-16-CMT; MCO-19AIC (UV)) maintained at 37° C. and 5% CO2. Then, the cells were rinsed with 1× Dulbecco's Phosphate-Buffered Saline and sub-cultured in T-75 flasks 1 to 3 times per week using 1× Trypsin-EDTA, applied for ≤5 minutes; enzymatic action of the trypsin-EDTA was stopped by adding complete growth medium to the detached cells. Then, upon reaching 80 to 90% confluency the cells were split into the following split ratio ranges: 1:5 to 1:16. Subculture and growth expansion activities were recorded, such as passage number, % confluency, % viability (only on experimental set-up day), and cell morphology throughout all phases. The cells were maintained in log-phase growth.
Cell culture plating was performed as follows. A cell suspension from a single 80 to 90% confluent T-75 flask was harvested with trypsin-EDTA and complete growth medium. To obtain cell concentration and viability, cell counts were obtained using a COUNTESS automated cell counter (INVITROGEN C10227; CNTR-7-CMT) in which 2 chambers of each slide were provided with 10 μL each of 1:1, 0.4% trypan-blue dye (INVITROGEN T10282) and cell suspension. […]

Regarding “Poly(ethylene glycol) methyl ether tosylate”, the viability was at least 70%.

As usually defined, the viability is a per cent measure of how many cells are alive, often set against a control. A lower viability goes with a greater loss of cells.
